Experimental data taken from patent US12245593B2, “Agricultural products and related methods” (priority 2017, dated 2025).

Test system: glyphosate-tolerant Palmer Amaranth (Amaranthus palmeri)
Assay type: in vivo
Conditions: glyphosate 1.27 kg/ha; Composition C 1 liter/ha; two weeks after spraying
Protocol: Various plant treatment products comprising (i) select plant treatment components (e.g., pesticides, fungicides, herbicides) and (ii) one or more microbial fermentation product formulations (Composition A, B, C, and combinations) were tested on (1) rice (Oryza sativa) infected by Sheath Blight Rhizoctonia solani, (2) soybean (Glycine max) infected by Soybean Rust (Phakopsora pachyrhizi), (3) wheat (Triticum aestivum) infected by Stripe Rust (Puccinia striiformis), (4) corn (Zea mays) infected by Gray Leaf Spot (Cercospora zeae-maydis), (5) creeping bentgrass (Agrostis stolonifera) infected by dollar spot (Sclerotina homoeocarpa), and (6) glyphosate-tolerant Palmer Amaranth (Amaranthus palmeri) weed, and compared to controls, including plant treatment component(s) alone.
To test the effects of the inventive plant treatment product on weed survival in herbicide-tolerant Palmer Amaranth (Amaranthus palmeri) plants, the plant treatment product (Composition C+herbicide) or herbicide component (alone) were applied to weeds, in greenhouse conditions. […] The measurements of dry shoot mass and dry root mass were taken two weeks after spraying. […] Thus, the inventive plant treatment product can enhance herbicide susceptibility in herbicide-tolerant plants.

`O=C(O)CNCP(=O)(O)O` [Herbicide, glyphosate] was tested, and the “Palmer Amaranth root dry weight per plant in greenhouse conditions” value was 0.768, the “Palmer Amaranth root dry weight, change versus Untreated Control” value was −40.9% and the “Palmer Amaranth root fresh weight per plant in greenhouse conditions” value was 4.70. For the same molecule, the “Palmer Amaranth root fresh weight, change versus Untreated Control” value was −51.3%, the “Palmer Amaranth shoot dry weight per plant in greenhouse conditions” value was 5.31 and the “Palmer Amaranth shoot dry weight, change versus Untreated Control” value was −7.01%. The “Palmer Amaranth shoot fresh weight per plant in greenhouse conditions” value was 15.0 and the “Palmer Amaranth shoot fresh weight, change versus Untreated Control” value was −20.6%.
